Data reported in patent publication US20130072459A1, “PHARMACEUTICAL COMPOSITION FOR THE PREVENTION OR THE TREATMENT OF NON-ALCOHOLIC FATTY LIVER DISEASE AND THE METHOD FOR PREVENTION OR TREATMENT OF NON-ALCOHOLIC FATTY LIVER DISEASE USING THE SAME” (priority 2010, published 2013).

Legend:
[1] = system: activated hepatic stellate cells; test: Expression of activity indicator proteins (TGFβ1, α-SMA) in activated hepatic stellate cells, Western blot; assay type: cell-based, rat (Wistar); settings: for 1 ng/mL TGFβ1-induced protein expression inhibition rate, TGFβ1 / 1 ng/mL TGFβ1-induced protein expression inhibition rate, α-SMA: 100 μM compound, 7 days, N = 3, corrected by β-actin; for protein expression levels of TGFβ1 and α-SMA, result in words: hTGF-β1-activated rat hepatic stellate cells
Experimental: An inhibitory action of the compounds of the present invention on the activation of hepatic stellate cells was tested according to the following cell culture method. Male rats (Wistar rats), weighing 500 to 700 g, were anesthetized, followed by an abdominal incision, and cannulae were connected to hepatic portal veins, followed by sequential perfusion with a Hank's Balanced Salt Solution (HBSS) containing heparin and an HBSS containing type 1 collagenase. After the perfusion was complete, the liver was excised, ground with surgical scissors, and added to an HBSS containing type 1 collagenase, followed by shaking culture at 37° C. for 15 minutes. The completely ground liquid-state liver tissue was passed through gauze and centrifuged at 500 g for 10 minutes. The resulting mingled cell precipitate was washed with a phosphate buffer, followed by centrifugation at 100 g for 5 minutes, and the supernatant was collected. The supernatant was further centrifuged at 500 g for 10 minutes to obtain a precipitate to which a 9:1 (v/v) mixture of a Ficoll liquid (GE Healthcare) and a Percoll liquid (GE Healthcare) was added, followed by mixing. A phosphate buffer was gently placed on the mixed layer, followed by centrifugation at 1,400 g for 15 minutes. Then, the cell layer formed between the upper layer and the lower layer was recovered and washed once with a Dulbecco's Modified Eagle Medium (DMEM) containing 10(v/v) % fetal bovine serum. The resulting cells were added at a cell density of 3.1×10^5 cells/cm^2, the medium was exchanged with a fresh medium after 24 hours, and cultured for 7 days with exchange of the medium at intervals of 2 to 3 days. Then, the drugs were treated at specified concentrations in a medium containing 1 ng/ml of a human transforming growth factor (TGF) β1 and a medium containing no TGF β1. TGF β1 was dissolved in dimethylsulfoxide (DMSO) to a concentration 1.000-fold higher than the desired treatment concentration of the drug, 1.000-fold diluted in a medium to be a 1-fold (1×) volume, and then treated on cells. After 7 days of the drug treatment, the medium was harvested and washed with a phosphate buffer. A buffer containing a surfactant was added thereto and the cells were lysed. Then, proteins were quantified, electrophoresed on a 4-12% Bis-Tris gel (Invitrogen), and transferred to a nitrocellulose membrane. The transferred proteins were reacted with primary antibodies specific for α-smooth muscle actin (α-SMA) or TGFβ1, and then reacted with horse radish peroxidase-conjugated specific secondary antibodies. The expression level of the target protein was confirmed using a chemiluminescent liquid and corrected in terms of actin (β-actin) expression level (FIG. 9). The decrement of observed protein expression by 100 μM of individual compounds of the present invention was expressed as a percentage drug-induced decrement, based an increment of protein expression in the TGFβ1-treated positive control group relative to the negative control group to which only DMSO was added (Table 3).

HepG2 cells = test: Free fatty acid-induced intracellular fat accumulation, Nile Red staining; assay type: cell-based, human; settings: 0.5 mM free fatty acid, 24 hours
Experimental: By a combined treatment of free fatty acid and a drug, inhibitory effects of individual drugs on intracellular fat accumulation were quantified using a triglyceride staining method. The human hepatoma cell line, HepG2 cells were cultured in a minimum essential medium (MEM) containing 10(v/v) % fetal bovine serum for 48 hours. […] For the negative control group, a MEM containing 1(v/v) % bovine serum albumin was treated with 0.1(v/v) % dimethyl sulfoxide with no addition of free fatty acid. After the culture was complete, the medium was removed and the cells were washed with a phosphate buffer. […] After the staining was complete, the supernatant was discarded and replaced with a phosphate buffer, followed by measurement of fluorescence intensities under conditions of a 488 nm excitation wavelength and a 550 nm emission wavelength. Then, in order to correct a deviation according to the cell count, a phosphate buffer containing 10 μM resazurin (Sigma) dissolved therein was added to the same well. Thereafter, before and after the reaction at 37° C. for 1 hour under light-shielded conditions, fluorescence intensities were measured using a fluorometer under conditions of a 535 nm excitation wavelength and a 580 nm emission wavelength, whereby an increase in fluorescence intensity due to resorufin reduced and formed by the intracellular mitochondrial activity was measured. Using the value of a fluorescence intensity of Nile Red corrected in terms of an increase in fluorescence intensity due to the reduction of resazurin, the experimental results were expressed as a percentage for the fat accumulation increased by a treatment with free fatty acid, as compared to the negative control group.

[2] = system: high fat diet-induced simple steatosis; test: Non-alcoholic fatty liver-preventing effects on high fat diet-induced simple steatosis in mice (oral, 28 days); assay type: in vivo, C57BL/6 mice; settings: for Triglyceride increase inhibition (%) relative to high fat diet-fed group / Triglyceride increment (%) relative to standard diet-fed group: 28 days, high fat diet
Experimental: 7-week old male C57BL/6 mice were stabilized and then divided into 9 groups (n=9) according to the body weight and blood glucose level. A standard diet-fed group and a high fat diet-fed group were orally administered a vehicle solution (0.5% MC (methylene cellulose)) of each diet once a day at a dose of 10 ml/kg, and the remaining groups were orally given once a day for 28 days a high fat diet in conjunction with tartrate of Compound 1 at doses of 30, 100 and 300 mg/kg, sitagliptin phosphate at doses of 100 and 300 mg/kg, and vildagliptin at doses of 100 mg/kg and 300 mg/kg, respectively, according to the designated groups. 24 hours after the final oral administration, animals were dissected and the excised liver was homogenized in a 5(v/v) % Triton-X solution to which a triglyceride working reagent was then added, followed by measurement of an absorbance at 540 nm to determine the content of triglyceride (Table 2). In addition, a portion of the excised liver was fixed in a 10(v/v) % formalin solution and then a tissue sample was prepared, followed by hematoxylin & eosin(HE) staining and photographing (FIG. 8).

TGF-β1 = TGF-β1 mRNA expression in liver, CCl4-induced acute hepatic damage mouse model; assay type: in vivo, C57BL/6 mice; settings: for TGF-β1 expression inhibition rate (% CCl4 control group) / TGF-β1 expression (normalized by actin): 3 days; for TGF-β1 expression (normalized by actin): CCl4 0.1 ml/kg i.p.
Experimental: In order to investigate inhibitory effects of compounds of the present invention on expression of TGF-β1 which is known to play a crucial role in a fibrosis process of hepatocytes in a CCl4-induced acute hepatic damage mouse model, the following experiment was carried out. 7-week old male C57BL/6 mice were stabilized and divided into 9 groups (n=7) according to the body weight, followed by intraperitoneal administration of CCl4 (0.1 ml/kg). The normal control group was administered an olive oil. The control group was orally administered a vehicle solution (0.5% MC) once a day at a dose of 10 ml/kg, at intervals of 24 hours for 3 days. The remaining groups were orally administered once a day tartrate of Compound 1 at doses of 30, 100 and 300 mg/kg, sitagliptin phosphate (prepared according to the method described in WO2004/085378 or WO2005/003135) at doses of 100 and 300 mg/kg, and vildagliptin (Trademax, China) at doses of 100 and 300 mg/kg, respectively, according to the designated groups. 1 hour after the final oral administration, animals were dissected and the excised liver was subjected to evaluation of TGF-β1 mRNA expression. The liver tissue stored in liquid nitrogen was homogenized in a TRIZOL solution and then the total RNAs were extracted. The isolated RNAs were diluted to a concentration of 1 μg/μL in 0.1(v/v) % DEPC (diethyl pyrocarbonate), and then the RNA mixture [2 μg/μL each RNA+2 μL of 0.5 μg/μL oligo d(T)15+up to 15 μL of 0.1% DEPC water] was incubated using a PCR apparatus at 72° C. for 5 minutes, followed by quenching on ice. The mixture [1 μL of PCR nucleotide mix+5 μL of 5×MMLV RT bf.(Promega, M531A)+1 μL of […] M-MLV reverse] was prepared, and then subjected to elongation at 42° C. for 60 minutes, denaturation at 95° C. for 5 minutes and quenching at 8° C. to synthesize cDNAs which were stored at −20° C. until subsequent use. In order to carry out RT-PCR, the mixture [1 μL of 20 pmol each Primer+9.5 μL of Nuclease-free water] was prepared and then 2 μL of each cDNA was placed in sterile PCR tubes to which 12.5 μL of remix Taq™ (RR003A, TaKaRa) was then added, followed by mixing. PCR was carried out under the following conditions (Table 4), using Thermal Cycler (PTC-200, MJ Research). PCT products were electrophoresed and analyzed using an Image Analyzer (Vilber Lourmat). Using β-actin expression, the expression of a target gene TGF-β1 was subjected to normalization (FIG. 11).

CC#CCn1c(N2CCC[C@@H](N)C2)nc2c1c(=O)n(Cc1nc(C)c3ccccc3n1)c(=O)n2C [linagliptin]
1 ng/mL TGFβ1-induced protein expression inhibition rate, TGFβ1 [1]: 64 ± 17.2%
1 ng/mL TGFβ1-induced protein expression inhibition rate, α-SMA [1]: 159 ± 17.5%
protein expression levels of TGFβ1 and α-SMA, result in words [1]: lowered

CN(C)C(=N)N=C(N)N [metformin]
inhibition at 1000 µM (HepG2 cells; Homo sapiens, HepG2, 1 mM, read-out: inhibitory effects on free fatty acid-induced fat accumulation): 23.6 ± 5%

N#C[C@@H]1CCCN1C(=O)CNC12CC3CC(CC(O)(C3)C1)C2 [vildagliptin]
Triglyceride increase inhibition (%) relative to high fat diet-fed group ([2]; 100 mg/kg oral once a day): 24%
Triglyceride increment (%) relative to standard diet-fed group ([2]; 100 mg/kg oral once a day): 38%
Triglyceride increase inhibition (%) relative to high fat diet-fed group ([2]; 300 mg/kg oral once a day): 79%
Triglyceride increment (%) relative to standard diet-fed group ([2]; 300 mg/kg oral once a day): 11%
lipid droplets in liver tissue sample (histological evaluation), result in words ([2]; HE staining, FIG. 8): reduction of lipid droplets
maximum decrement of the hepatic triglyceride content relative to the high fat diet-fed group ([2]; maximum over the doses tested): 79%
1 ng/mL TGFβ1-induced protein expression inhibition rate, TGFβ1 [1]: 14 ± 32.8%
1 ng/mL TGFβ1-induced protein expression inhibition rate, α-SMA [1]: −56 ± 8.4%
protein expression levels of TGFβ1 and α-SMA, result in words [1]: lowered
TGF-β1 expression inhibition rate (% CCl4 control group) (TGF-β1; 100 mg/kg oral once a day): 92%
TGF-β1 expression (normalized by actin) (TGF-β1; 100 mg/kg oral once a day): 1.02 ± 0.09
TGF-β1 expression inhibition rate (% CCl4 control group) (TGF-β1; 300 mg/kg oral once a day): 115%
TGF-β1 expression (normalized by actin) (TGF-β1; 300 mg/kg oral once a day): 0.96 ± 0.12
maximum decrement in TGF-β1 mRNA expression of the liver relative to the CCl4 control group (TGF-β1; maximum over the doses tested): 115%
expression of TGF-β1 mRNA of the liver, result in words (TGF-β1; vs CCl4 group): normalization

glucagon-like peptide-1 [GLP-1]
inhibitory effects on free fatty acid-induced fat accumulation (HepG2 cells; 100 nM): 28.0±4.9%
